Measured values published in patent US20060004029A1, “Nitrogen-containing aromatic derivatives” (priority 2003, published 2006).
Where two headings read alike, the source gives them in different places.

What was measured:
FGFR1 = biological target: T1, FGFR1 (Homo sapiens, UniProt P11362); assay: Inhibition against receptor tyrosine kinase activity (HTRF), FGFR1; type: biochemical
T1 construct: made in house; host or cells: Sf9 insect cells, baculovirus (pFastBacHis), by the same method as VEGFR2
Source text: This assay is used to determine inhibition of a test substance on tyrosine kinase activity. DNA coding for the cytoplasmic domain of VEGFR2 is obtained by total cDNA synthesis (Edwards M, International Biotechnology Lab 5(3), 19-25, 1987) or by cloning. Expression in an appropriate expression system can produce a polypeptide with tyrosine kinase activity. […] For VEGFR2 (GenBank Accession No. L04947), the 1.7 kb DNA fragment described by Terman et al. (Oncogene, 6(9), 1677-1683, 1991), coding for the cytoplasmic domain, beginning with lysine 791 and including the termination codon, was isolated from a human placental cDNA library (purchased from Clontech Laboratories, Inc.) and cloned in a Baculovirus expression vector (pFastBacHis, purchased from GIBCO BRL). The recombinant construct was transfected into insect cells (Spondoptea frugiperda9 (Sf9)) to prepare a recombinant Baculovirus. (Instructions for preparation and use of recombinant Baculovirus may be found in standard texts, such as “Bac-To-Bac Baculovirus Expression System” (GIBCO BRL).) The cytoplasmic fragment starting from lysine 398 (FGFR1, GenBank Accession No. X52833), the cytoplasmic fragment starting from lysine 558 (PDGFRβ, GenBank Accession No. M21616) or the cytoplasmic fragment starting from lysine 974 (HGFR, GenBank Accession No. J02958) may be cloned and expressed by the same method for use in assays for other tyrosine kinases. EGFR was purchased from Sigma Co. (Product No. E-2645).
(§1) For expression of the VEGFR2 tyrosine kinase, Sf9 cells were infected with the VEGFR2 recombinant virus and collected after 48 hours. The collected cells were rinsed with ice-cooled phosphate buffered saline (PBS) and then resuspended using 20 ml of ice-cooled Lysis Buffer (50 mM Tris-HCl (pH 8.5), 5 mM 2-mercaptoethanol, 100 mM KCl, 1 mM phenylmethylsulfonyl fluoride, 1% (v/v) NP-40) per 1.5×10^8 cells. The suspension was centrifuged at 12,000 rpm for 30 minutes at 4° C. and the supernatant was obtained. The supernatant was added to a Ni-NTA agarose column (3 ml, purchased from Qiagen) equilibrated with Buffer A {20 mM Tris-HCl (pH 8.5), 5 mM 2-mercaptoethanol, 500 mM KCl, 20 mM imidazole, 10% (v/v) glycerol}. The column was washed with 30 ml of Buffer A, and then with 6 ml of Buffer B {20 mM Tris-HCl (pH 8.5), 5 mM 2-mercaptoethanol, 1M KCl, 10% (v/v) glycerol}, and finally with 6 ml of Buffer A. After washing, it was eluted with 6 ml of Buffer C {20 mM Tris-HCl (pH 8.5), 5 mM 2-mercaptoethanol, 100 mM KCl, 100 mM imidazole, 10% (v/v) glycerol}. The eluate was placed on a dialysis membrane (purchased from Spectrum Laboratories) and dialyzed with a dialysis buffer {20 mM Tris-HCl (pH 7.5), 10% (v/v) glycerol, 1 mM dithiothreitol, 0.1 mM Na3VO4, 0.1 mM EGTA}. After dialysis, it was supplied for SDS-electrophoresis, and the recombinant protein (His6-VEGFR2, cytoplasmic domain of VEGFR2 fused with 6 histidine residues at the N-terminus) detected at a molecular weight of approximately 100 kDa with Coumassie Brilliant Blue staining was assayed using BSA (bovine serum albumin, purchased from Sigma Co.) as the standard substance, and stored at −80° C. until use. Using the same method for the cytoplasmic domains of FGFR1, PDGFRβ and HGFR yielded respective recombinant proteins fused with 6 histidine residues at the N-terminal (His6-FGFR1, His6-PDGFRβ or His6-HGFR).
The tyrosine kinase reaction was conducted as follows. In the case of VEGFR2, for example, 10 μl of a kinase reaction solution {200 mM Hepes (pH 7.4), 80 mM MgCl2, 16 mM MnCl2, 2 mM Na3VO4}, 250 ng of biotin-bound poly(Glu4:Tyr1) (biotin-poly(GT), purchased from CIS Diagnostics Co.) (6 μl of a 15-fold dilution with distilled water), 15 ng of His6-VEGFR2 (10 μl of a 240-fold dilution with 0.4% BSA solution) and the test substance dissolved in dimethyl sulfoxide (4 μl of a 100-fold dilution with 0.1% BSA solution) were added into each well of a 96-well round-bottom plate (NUNC Co., Product No. 163320), to a total of 30 μl. […]

VEGFR2 = biological target: T2, VEGFR2 (Homo sapiens, UniProt P35968); assay: Inhibition against receptor tyrosine kinase activity (HTRF), VEGFR2; type: biochemical
T2 construct: coding for the cytoplasmic domain, beginning with lysine 791 and including the termination codon; made in house; host or cells: Sf9 insect cells, baculovirus (pFastBacHis)
Description: This assay is used to determine inhibition of a test substance on tyrosine kinase activity. […] Expression in an appropriate expression system can produce a polypeptide with tyrosine kinase activity. […] The recombinant construct was transfected into insect cells (Spondoptea frugiperda9 (Sf9)) to prepare a recombinant Baculovirus.
as §1, with “After dialysis, it was supplied for SDS-electrophoresis, and the recombinant protein (His6-VEGFR2, cytoplasmic domain of VEGFR2 fused with 6 histidine residues at the N-terminus) detected at a molecular weight of approximately 100 kDa with Coumassie Brilliant Blue staining was assayed using BSA (bovine serum albumin, purchased from Sigma Co.) as the standard substance, and stored at −80° C. until use.” left out
The tyrosine kinase reaction was conducted as follows. […] Next, 10 μl of 4 μM ATP (diluted with distilled water) was added prior to incubation at 30° C. for 10 minutes, and then 10 μl of 500 mM EDTA (pH 8.0) was added.
The tyrosine phosphorylation rate for the biotin-poly(GT) was expressed as the delta F % value as described in the HTRF Standard Experiment Methods text by CIS Diagnostics Co. The delta F % value in the presence of the test substance was determined as a ratio (%) with the delta F % value with addition of His6-VEGFR2 in the absence of the test substance defined as 100% and the delta F % value in the absence of both the test substance and His6-VEGFR2 defined as 0%.

[1] = His6-FGFR1 cytoplasmic domain, biotin-poly(GT), HTRF, read-out: FGFR1 kinase IC50
[2] = His6-VEGFR2 cytoplasmic domain, biotin-poly(GT), HTRF, read-out: VEGFR2 kinase IC50

T2 sequence (P35968 786-1356 limits assumed): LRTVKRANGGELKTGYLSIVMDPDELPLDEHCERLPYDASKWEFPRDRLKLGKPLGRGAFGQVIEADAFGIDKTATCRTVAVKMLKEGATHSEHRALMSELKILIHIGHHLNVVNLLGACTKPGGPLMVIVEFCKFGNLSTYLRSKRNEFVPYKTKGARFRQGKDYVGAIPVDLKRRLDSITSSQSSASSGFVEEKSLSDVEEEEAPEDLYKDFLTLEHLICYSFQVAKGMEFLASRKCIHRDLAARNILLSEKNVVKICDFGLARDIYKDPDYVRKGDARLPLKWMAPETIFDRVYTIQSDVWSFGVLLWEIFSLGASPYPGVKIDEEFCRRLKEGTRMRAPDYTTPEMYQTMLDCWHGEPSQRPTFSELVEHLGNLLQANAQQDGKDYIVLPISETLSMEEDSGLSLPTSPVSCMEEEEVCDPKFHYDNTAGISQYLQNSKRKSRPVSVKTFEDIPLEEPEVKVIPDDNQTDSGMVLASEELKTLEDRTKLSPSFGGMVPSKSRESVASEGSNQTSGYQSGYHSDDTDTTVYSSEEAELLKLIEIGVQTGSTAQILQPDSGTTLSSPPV
T1 sequence (P11362 398-822 limits assumed): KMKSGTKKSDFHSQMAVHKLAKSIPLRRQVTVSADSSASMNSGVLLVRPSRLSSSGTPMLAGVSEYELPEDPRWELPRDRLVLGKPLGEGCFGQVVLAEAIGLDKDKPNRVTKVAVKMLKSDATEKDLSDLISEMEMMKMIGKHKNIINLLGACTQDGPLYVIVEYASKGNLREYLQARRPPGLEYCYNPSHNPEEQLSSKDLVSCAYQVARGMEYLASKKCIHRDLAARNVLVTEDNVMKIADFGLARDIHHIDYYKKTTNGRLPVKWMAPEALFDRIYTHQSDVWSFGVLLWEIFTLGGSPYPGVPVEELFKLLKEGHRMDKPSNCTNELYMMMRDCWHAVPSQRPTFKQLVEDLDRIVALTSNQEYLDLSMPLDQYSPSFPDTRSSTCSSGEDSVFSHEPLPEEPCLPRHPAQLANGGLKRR

| Structure (SMILES) | IC50 (FGFR1; [1]) | IC50 (VEGFR2; [2]) | IC50 (FGFR1) | IC50 (VEGFR2) |
| --- | --- | --- | --- | --- |
| CNC(=O)n1ccc2cc(Oc3ccnc(NC(=O)NCC(=O)N4CCCC4)c3)ccc21 [Example 7, 5-(2-(3-(2-Oxo-2-(pyrrolidin-1-yl)ethyl)ureido)pyridin-4-yloxy)-1H-indole-1-carboxylic acid methylamide] | 26 nM | 8 nM | – | – |
| CNC(=O)n1ccc2cc(Oc3ccnc(NC(=O)NCC(N)=O)c3)ccc21 [Example 11, 5-(2-(3-Carbamoylmethylureido)pyridin-4-yloxy)-1H-indole-1-carboxylic acid methylamide] | 47 nM | 3 nM | – | – |
| CNC(=O)n1ccc2cc(Oc3ccnc(NC(=O)N[C@@H](CO)C(=O)N4CCCC4)c3)ccc21 [Example 18, 5-(2-(3-((1S)-1-Hydroxymethyl-2-oxo-2-pyrrolidin-1-ylethyl)ureido)pyridin-4-yloxy)-1H-indole-1-carboxylic acid methylamide] | 70 nM | 3 nM | – | – |
| CNC(=O)n1ccc2cc(Oc3ccnc(NC(=O)NCCCC(=O)N4CCCC4)c3)ccc21 [Example 32, 5-(2-(3-(4-Oxo-4-(pyrrolidin-1-yl)butyl)ureido)pyridin-4-yloxy)-1H-indole-1-carboxylic acid methylamide] | 16 nM | 9.3 nM | – | – |
| CNC(=O)n1ccc2cc(Oc3ccnc(NC(=O)NCCCC(=O)NC4CC4)c3)ccc21 [Example 33, 5-(2-(3-(3-(Cyclopropylcarbamoyl)propyl)ureido)pyridin-4-yloxy)-1H-indole-1-carboxylic acid methylamide] | 12 nM | 7.1 nM | – | – |
| CNC(=O)n1ccc2cc(Oc3ccnc(NC(=O)NCCCC(=O)N4CCC(C)(O)CC4)c3)ccc21 [Example 34, 5-(2-(3-(4-(4-Hydroxy-4-methylpiperidin-1-yl)-4-oxobutyl)ureido)pyridin-4-yloxy)-1H-indole-1-carboxylic acid methylamide] | 22 nM | 8.4 nM | – | – |
| CNC(=O)CCCNC(=O)Nc1cc(Oc2ccc3c(ccn3C(=O)NC)c2)ccn1 [Example 36, 5-(2-(3-(3-(Methylcarbamoyl)propyl)ureido)pyridin-4-yloxy)-1H-indole-1-carboxylic acid methylamide] | 16 nM | 3.4 nM | – | – |
| CNC(=O)n1ccc2cc(Oc3ccnc(NC(=O)N4CCCC4)c3)ccc21 [Example 37, N1-Methyl-5-(2-(pyrrolidin-1-ylcarbonyl)amino-4-pyridyl)oxy-1H-1-indolecarboxamide] | 1.2 nM | 4.8 nM | – | – |
| CNC(=O)n1ccc2cc(Oc3ccnc(NC(=O)N4CCC(=O)CC4)c3)ccc21 [Example 40, N1-methyl-5-(2-(4-oxopiperidin-1-ylcarbonyl)amino-4-pyridyl)oxy-1H-1-indolecarboxamide] | – | – | 6.9 nM | 5.7 nM |
| CNC(=O)CCCC1CCN(C(=O)Nc2cc(Oc3ccc4c(ccn4C(=O)NC)c3)ccn2)CC1 [Example 43, 5-(2-(((4-(3-Methylcarbamoylpropyl)piperidin-1-yl)carbonyl)amino)pyridin-4-yloxy)-1H-indole-1-carboxylic acid methylamide] | 18 nM | 6.4 nM | – | – |
| CNC(=O)n1ccc2cc(Oc3ccnc(NC(=O)N4CCC(CCCC(N)=O)CC4)c3)ccc21 [Example 44, 5-(2-(((4-(3-Carbamoylpropyl)piperidin-1-yl)carbonyl)amino)pyridin-4-yloxy)-1H-indole-1-carboxylic acid methylamide] | 14 nM | 7.7 nM | – | – |
| CNC(=O)n1ccc2cc(Oc3ccnc(NC(=O)NCCCS(C)(=O)=O)c3)ccc21 [Example 50, N1-Methyl-5-(2-((3-methylsulfonylpropylamino)carbonyl)amino-4-pyridyl)-oxy-1H-1-indolecarboxamide] | 13 nM | 5 nM | – | – |
| O=C(Nc1cc(Oc2ccc3c(ccn3C(=O)NC3CC3)c2)ccn1)N1CCC(N2CCCC2)CC1 [Example 68, N1-Cyclopropyl-5-(2-(((4-(pyrrolidin-1-yl)piperidin-1-yl)carbonyl)amino)pyridin-4-yloxy)-1H-1-indolecarboxamide] | 52 nM | 37 nM | – | – |
| CCNC(=O)n1ccc2cc(Oc3ccnc(NC(=O)N4CCC(O)CC4)c3)ccc21 [Example 79, N1-Ethyl-5-(2-((4-hydroxypiperidin-1-yl)carbonyl)amino-4-pyridyl)oxy-1H-1-indolecarboxamide] | 25 nM | 9.8 nM | – | – |
| CCNC(=O)n1ccc2cc(Oc3ccnc(NC(=O)N4CCCC4)c3)ccc21 [Example 81, N1-Ethyl-5-((2-((pyrrolidin-1-ylcarbonyl)amino)-4-pyridyl)oxy)-1H-1-indolecarboxamide] | 38 nM | 12 nM | – | – |
| CCNC(=O)n1ccc2cc(Oc3ccnc(NC(=O)N4CCOCC4)c3)ccc21 [Example 82, N4-(4-((1-(Ethylamino)carbonyl-1H-5-indolyl)oxy)-2-pyridyl)-4-morpholinecarboxamide] | 24 nM | 15 nM | – | – |
